Source: PMC12120022, “Discovery and chemical optimisation of a potent, Bi-cyclic antimicrobial inhibitor of Escherichia coli PBP3” (Communications Biology, 2025)
Converted amounts (≈) assume the structure as drawn. Where two headings read alike, the source gives them in different places. One block for each molecule: values may come before it.

Tests used:
[1] = system: E. coli ATCC 25922; assay: MIC, wild-type strain; format: cell-based, Escherichia coli; conditions: for MIC E. coli ATCC 25922: MHB, biological replicates or their range
Method: (§1) Minimal inhibition concentration (MIC) assays were performed in accordance with CLSI standards, using cation-adjusted Mueller Hinton broth (caMHB; Sigma Aldrich) unless otherwise specified. Induction of pore expression in hyperporinated strains E. coli GKCW101 and GKCW102 was performed by addition of 0.1% (w/v) L-arabinose to cultures at OD600 ~ 0.3, with caMHB as the culture medium.

[2] = system: Klebsiella pneumoniae ATCC 43816; assay: MIC; format: cell-based; conditions: caMHB; replicates listed
Method: as §1

[3] = system: Escherichia coli ATCC BAA-2469; assay: MIC; format: cell-based; conditions: caMHB, replicates listed
Method: as §1

[4] = system: Enterobacter cloacae KPC114; assay: MIC; format: cell-based; conditions: caMHB; replicates listed
Method: as §1

[5] = system: Citrobacter freundii B121; assay: MIC; format: cell-based; conditions: caMHB; replicates listed
Method: as §1

[6] = system: Enterobacter cloacae AR0038; assay: MIC; format: cell-based; conditions: caMHB, replicates listed
Method: as §1

[7] = system: Acinetobacter baumannii NCTC 12156; assay: MIC; format: cell-based; conditions: caMHB; replicates listed
Method: as §1

[8] = system: Pseudomonas aeruginosa NCTC 13437; assay: MIC; format: cell-based; conditions: caMHB, replicates listed
Method: as §1

[9] = system: Citrobacter freundii AR0116; assay: MIC; format: cell-based; conditions: caMHB, replicates listed
Method: as §1

[10] = system: Klebsiella pneumoniae ATCC 700603; assay: MIC; format: cell-based; conditions: caMHB; replicates listed
Method: as §1

[11] = system: Pseudomonas aeruginosa ATCC 27853; assay: MIC; format: cell-based; conditions: caMHB; replicates listed
Method: as §1

[12] = system: Enterobacter cloacae B173; assay: MIC; format: cell-based; conditions: caMHB; replicates listed
Method: as §1

[13] = system: Proteus mirabilis ATCC 43071; assay: MIC; format: cell-based; conditions: caMHB; replicates listed
Method: as §1

[14] = system: Escherichia coli NCTC 13441; assay: MIC; format: cell-based; conditions: caMHB, replicates listed
Method: as §1

[15] = system: Acinetobacter baumannii AR0275; assay: MIC; format: cell-based; conditions: caMHB, replicates listed
Method: as §1

[16] = system: Escherichia coli UTI89; assay: MIC; format: cell-based; conditions: caMHB; replicates listed
Method: as §1

[17] = system: Enterobacter cloacae AR0032; assay: MIC; format: cell-based; conditions: caMHB; replicates listed
Method: as §1

[18] = system: Klebsiella pneumoniae B454; assay: MIC; format: cell-based; conditions: caMHB, replicates listed
Method: as §1

[19] = system: Proteus mirabilis AR159; assay: MIC; format: cell-based; conditions: caMHB, replicates listed
Method: as §1

[20] = system: E. coli GKCW101 (WT); conditions: caMHB; biological replicates or their range
Method: (§2) To evaluate the engagement of EcPBP3 by a bicyclic peptide in whole cells lacking the outer membrane permeability barrier, peptides were screened in ‘hyperporinated’ E. coli strains in which a constitutively open FhuA pore (FhuAΔC/Δ4L, lacking N-terminal cork domain and external loops) was chromosomally expressed under control of an arabinose-inducible promoter.
as §1

[21] = system: E. coli GKCW102 (EcPore); conditions: caMHB, biological replicates or their range
Method: as §2, §1

[22] = biological target: T1, EcPBP3 (Escherichia coli, UniProt P0AD68); assay: Fluorescence polarisation competition assay with fluorescent Bicycle tracer (tracer 1 / BCY12820); format: binding; conditions: protein 9.4 nM sets sensitivity limit, top concentration 5 µM, read-out: Ki (nM) by fluorescence polarisation with tracer 1 (BCY12820 as tracer), Geometric mean (Lower 95% CI; Upper 95% CI, n=number of values)
T1 construct: For assays, selections and SPR a construct with residues 60–588 which has the N-terminal domain, but not the transmembrane helix, was used; made in house
T1 sequence (P0AD68 60-588): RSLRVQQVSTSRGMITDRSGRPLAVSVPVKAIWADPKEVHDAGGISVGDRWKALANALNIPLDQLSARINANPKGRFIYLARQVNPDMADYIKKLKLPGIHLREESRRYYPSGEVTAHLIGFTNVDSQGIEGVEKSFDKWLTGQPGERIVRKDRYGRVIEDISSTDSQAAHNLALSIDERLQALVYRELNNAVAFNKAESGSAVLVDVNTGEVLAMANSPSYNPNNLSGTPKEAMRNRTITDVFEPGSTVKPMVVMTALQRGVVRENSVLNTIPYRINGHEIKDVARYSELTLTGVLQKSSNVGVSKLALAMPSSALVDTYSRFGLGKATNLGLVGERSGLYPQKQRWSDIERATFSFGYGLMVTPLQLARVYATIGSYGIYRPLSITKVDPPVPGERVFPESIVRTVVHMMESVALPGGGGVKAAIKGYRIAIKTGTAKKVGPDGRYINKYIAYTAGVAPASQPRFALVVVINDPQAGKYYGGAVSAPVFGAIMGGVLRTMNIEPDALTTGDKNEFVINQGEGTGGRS
Method in brief: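 Unlabelled peptide competes with fluorescent Bicycle tracer (1 nM, as added) for EcPBP3 (9.4 nM, as added) in 10 mM HEPES, 2% glycerol, 300 mM NaCl, pH 8.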

[23] = biological target: T1, EcPBP3; assay: Fluorescence polarisation competition assay with BOCILLIN-FL as tracer; format: binding; conditions: competition format, NB, non-binder (100 μM top concentration)
[24] = biological target: T1, EcPBP3; assay: SPR binding assay on immobilised EcPBP3; conditions: 37 °C, kinetic fitting; NB = no binding at 2500 nM (Tables S-4, S-5) or 5000 nM (Table 1); read-out: Kd (nM) by SPR (geomean)
Method in brief: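 EcPBP3 amine-coupled to CM5 chip (1500-2500 RU); compounds injected at 37 °C in 10 mM HEPES pH 8.0, 200 mM NaCl, 0.05% Tween-20, 2% DMSO, 50 μL min^–1, 150 s contact, 2400 s dissociation. Double-referenced sensorgrams kinetically fitted for Kd; geometric mean of ≥2 biological replicates.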

[25] = system: PBPs in E. coli; assay: Bocillin FL staining of PBPs extracted from bacterial membranes; format: binding, E. coli strain DC2; conditions: peptides at 3 µM, membranes of E. coli DC2
Method: Staining of PBPs extracted from bacterial membranes with Bocillin FL was used to determine the binding of peptide 2 (and its all-D analogue) to other PBPs in E. coli[8].
Method was adapted from that described by Kocaoglu and Carlson[8]. E. coli strain DC2 cells were grown overnight at 37 °C then diluted 100-fold and allowed to grow at 37 °C to an OD600 of 0.5 in Lysogeny broth (LB). The cells were then centrifuged (3220 x g for 10 min at room temperature) and washed once in PBS (pH 7.4) then pelleted and resuspended in ice-cold PBS. Cells were sonicated (Fisherbrand™ Model 505 Sonic Dismembrator) on ice for five 10 s intervals with 15 s cooling time in between rounds. The membranes were collected by centrifugation (21,000 x g for 15 min at 4 °C) and resuspended the pellet in 100 µL PBS using a blunt needle. The resuspended membranes were incubated with the indicated compound for 15 min at room temperature then 10 µg ml^–1 BOCILLIN-Fl (Invitrogen) was added and reacted with the resuspended membranes for 10 min. […] The total protein content of each condition was normalised to 2.5 mg ml^–1 by measuring the absorbance at A280 and adjusting where necessary with the addition of PBS. […] Following fluorescence imaging, the gel was stained with InstantBlue Ultrafast protein stain (Abcam), washed twice in water and imaged in brightfield with an iBright FL1500.

[26] = system: Klebsiella pneumoniae KPNIH1; assay: MIC; format: cell-based; conditions: caMHB, replicates listed
Method: as §1

Molecule: ACSFPKCPWVEGCA* [Conjugate 2]
- MIC E. coli ATCC 25922 [1]: 1 to 2 µg/mL
- MIC Escherichia coli ATCC 25922 ([1]; caMHB, replicates listed, number in brackets): 2,8 μg mL-1
- MIC Klebsiella pneumoniae ATCC 43816 [2]: 8,16 μg mL-1
- MIC Escherichia coli ATCC BAA-2469 [3]: 8,8 μg mL-1
- MIC Enterobacter cloacae KPC114 [4]: 8 µg/mL
- MIC Citrobacter freundii B121 [5]: 8 µg/mL
- MIC Enterobacter cloacae AR0038 [6]: 8 µg/mL
- MIC Acinetobacter baumannii NCTC 12156 [7]: > 64 µg/mL
- MIC Pseudomonas aeruginosa NCTC 13437 [8]: > 64 µg/mL
- MIC Citrobacter freundii AR0116 [9]: 8 µg/mL
- MIC Klebsiella pneumoniae ATCC 700603 [10]: 16 µg/mL
- MIC Pseudomonas aeruginosa ATCC 27853 [11]: > 64 µg/mL
- MIC Enterobacter cloacae B173 [12]: 16 µg/mL
- MIC Proteus mirabilis ATCC 43071 [13]: > 64 µg/mL
- MIC Escherichia coli NCTC 13441 [14]: 4,8 μg mL-1
- MIC Acinetobacter baumannii AR0275 [15]: > 64 µg/mL
- MIC Escherichia coli UTI89 [16]: 8 µg/mL
- MIC Enterobacter cloacae AR0032 [17]: 4 µg/mL
- MIC Klebsiella pneumoniae B454 [18]: 16,32 μg mL-1
- MIC Proteus mirabilis AR159 [19]: > 64 µg/mL
- MIC E. coli GKCW101 (WT) [20]: 4 to 8 µg/mL
- MIC E. coli GKCW102 (EcPore) [21]: 0.5 to 1 µg/mL

Molecule: CC(C)[C@@H]1NC(=O)[C@H](Cc2c[nH]c3ccccc23)NC(=O)[C@@H]2CCCN2C(=O)[C@@H]2CSCCC(=O)N3CN(CN(C3)C(=O)CCSC[C@H](NC(=O)[C@H](C)N)C(=O)N[C@@H](CO)C(=O)N[C@@H](Cc3ccccc3)C(=O)N3CCC[C@H]3C(=O)N[C@@H](CCCCN)C(=O)N2)C(=O)CCSC[C@@H](C(=O)N[C@@H](C)C(N)=O)NC(=O)CNC(=O)[C@H](CCC(=O)O)NC1=O [Peptide 2]
- MIC E. coli ATCC 25922 [1]: > 16 µg/mL
- Ki [22]: < 9 nM
- IC50 (nM) by fluorescence polarisation with Bocillin FL as tracer, Geometric mean (Lower 95% CI of geo. Mean; Upper 95% CI of geo. Mean, n=number of values) [23]: showed binding to EcPBP3
- IC50 ([23]; read-out: IC50 (nM) by fluorescence polarisation with Bocillin FL as tracer, Geometric mean (Lower 95% CI of geo. Mean; Upper 95% CI of geo. Mean, n=number of values)): 602 nM
- MIC E. coli GKCW101 (WT) [20]: > 128 µg/mL
- MIC E. coli GKCW102 (EcPore) [21]: 0.5 to 2 µg/mL
- MIC E. coli GKCW102 (EcPore) ([21]; listed as peptide 2): 0.5 to 2 µg/mL
- Kd [24]: 5.23 nM
- Binding to other PBPs in E. coli (Bocillin FL staining) [25]: bound only to the active site of E. coli PBP3

- MIC ([3]; Escherichia coli, ATCCBAA2469): > 2 µg/mL
- MIC [26]: > 2 µg/mL
- MIC ([6]; Enterobacter cloacae, AR0038): > 2 µg/mL
- MIC ([8]; Pseudomonas aeruginosa, NCTC13437): 2.2 µg/mL (≈ 6.09 µM)
- MIC ([9]; Citrobacter freundii, AR0116): > 2 µg/mL
- MIC ([14]; Escherichia coli, NCTC13441): > 2 µg/mL
- MIC ([15]; Acinetobacter baumannii, AR0275): 2.2 µg/mL (≈ 6.09 µM)
- MIC ([18]; Klebsiella pneumoniae, B454): > 2 µg/mL
- MIC ([19]; Proteus mirabilis, AR159): 2.2 µg/mL (≈ 6.09 µM)
Molecule: C[C@H]1COc2c(N3CCN(C)CC3)c(F)cc3c(=O)c(C(=O)O)cn1c23 [Levofloxacin, reference compound]
